{
  "source": "patent US11717557B2",
  "about": "“Use of PRG4 as an anti-inflammatory agent” (Lubris LLC, priority 2015, dated 2023)",
  "key": {"human whole blood": {"tested_on": "human whole blood", "test": "Lubricin on tissue factor mediated inflammatory cytokine generation in whole blood", "type": "cell-based", "description": "The effect of lubricin on recombinant tissue factor (TF) mediated inflammatory cytokine generation was studied using Biochip Array technology. In these studies recombiplastin brand (IL Laboratories) tissue factor was used to trigger the generation of inflammatory cytokines in human whole blood. The effect of lubricin at 0.57 mg/mL was studied by supplementing this agent prior to the addition of tissue factor to the whole blood. Tissue factor alone served as a positive control. The blood samples were centrifuged and plasma retrieved. This plasma was then profiled for the inflammatory cytokine profile on the Randox Biochip arrays. TF was supplemented to whole blood in a 1:10 dilution."}, "whole citrated blood": {"tested_on": "whole citrated blood", "test": "Lubricin on LPS-mediated inflammatory cytokine generation in whole blood", "type": "cell-based, human", "settings": "LPS 10 ng/mL then lubricin 0.57 mg/mL, versus LPS alone", "description": "The effect of lubricin on LPS-mediated inflammatory cytokine generation was studied using Biochip Array technology. In these studies LPS alone at 10 ng/mL and LPS pre-supplementation at 10 ng/mL followed by lubricin supplementation at 0.57 mg/mL were compared in the whole citrated blood for the generation of various inflammatory cytokines. All samples were incubated for 60 minutes and centrifuged to obtain plasma. This plasma was subsequently analyzed using the biochip array for inflammatory cytokines. LPS was supplemented to whole blood in a 1:10 dilution."}, "[1]": {"tested_on": "osteoarthritic (OA) synovial fluid cells", "test": "Cytokines secreted by osteoarthritic synoviocytes (Luminex)", "type": "cell-based, human", "settings": "rhPRG4 90 μg/mL, 24 hours, versus PBS", "description": "(§1) Synovial fluid cells were obtained from normal and osteoarthritic (OA) patients and purified with CD90+ following an immune cell depletion. The cells were plated at 10,000 per well and suspended in media containing DMEM, heat-inactivated Hyclone FBS (10%), and Anti-Anti (1%). The assays contained the cell suspension (cells+ media) at 180 μL and the ligands at 20 μL for a total volume of 200 μL. Recombinant lubricin (rhPRG4) was then introduced to the cells at a concentration of 90 μg/mL and the negative control was PBS. The plate was then incubated at 37° C. at 5% CO2 for 24 hours, after which the supernatants were collected for cytokine analysis via the Luminex multiplex platform."}, "[2]": {"tested_on": "normal synovial fluid cells", "test": "Cytokines secreted by normal synoviocytes (Luminex)", "type": "cell-based, human", "settings": "rhPRG4 90 μg/mL, 24 hours, lubricin vs. PBS", "description": "as §1"}, "[3]": {"tested_on": "sodium urate crystal induced joint pain", "test": "Urate crystal gout model, Von Frey paw withdrawal", "type": "in vivo", "settings": "rhPRG4 injection after urate crystals; two rats per group", "description": "Male Lewis rats (10 weeks old; n=4) were injected with MSU suspension (50 μL; 5 mg/mL; Invivogen, California) in their knee joints. At 1 hour following MSU injection, rat knee joints were treated with 50 μL phosphate buffered saline (PBS; n=2) or rhPRG4 (50 μL; 2 mg/mL) (n=2). Paw withdrawal pressures were measured using an electronic Von Frey instrument, and data is present as percent change from baseline values.\nRats undergoing injection of sodium urate crystals were studied as a model of gout. 24 hours following the sodium urate crystal administration, rats developed joint pain. Two rats received saline while another two rats received rhPRG4 injection 24 hours after the urate crystals were introduced. These rats were studied every 12 hours utilizing the Von Frey method. This method determines afferent pain sensitization as a result of joint inflammation by probing the paws of the affected limb with a thin filament wire."}, "whole blood": {"tested_on": "whole blood", "test": "Lubricin on TNF-α mediated inflammatory cytokine generation in whole blood", "type": "cell-based, human", "description": "The effect of lubricin on TNF-α mediated inflammatory cytokine generation was studied using Biochip Array technology. Recombinant TNF-α was used as a trigger to generate inflammatory cytokines in whole blood. The effect of lubricin was studied on the TNF-α mediated generation of various cytokines. TNF-α alone at a concentration of […] was supplemented to the whole blood which was incubated for 60 minutes at 37° C. TNF-α was supplemented to whole blood in a 1:10 dilution. The modulatory effects of lubricin on TNF-α-mediated generation of various cytokines were studied by supplementing lubricin at 0.57 mg/mL in the whole blood immediately prior to addition of TNF-α. After 60 minutes plasma was obtained from centrifugation and analyzed for inflammatory cytokine using Randox Biochip arrays."}, "[4]": {"tested_on": "Rheumatoid arthritis fibroblast-like synoviocytes (RA-FLS)", "test": "Cytokine-induced RA-FLS proliferation (MTS)", "type": "cell-based", "settings": "48 hours, p<0.05", "description": "Rheumatoid arthritis fibroblast-like synoviocytes (RA-FLS; Cell Applications, USA) between 3rd and 6th passages were used to conduct these experiments. In sterile 96 well plates, RA-FLS (5,000 cells per well in 80 μL) were cultured in DMEM supplemented with 1% FBS and 1 mM pyruvate and stimulated with recombinant human interleukin-1 beta (IL-1β; R & D systems) at 20 ng/mL or tumor necrosis factor alpha (TNF-α; R & D systems) at 5 ng/mL for 48 hours at 37° C. in the absence or presence of rhPRG4 or HMW HA at a final concentration of 20, 40 or 80 μg/mL. The total volume in each well was 200 μL. Cell proliferation, an indication of inflammation, was determined using the CellTiter 96 AQueous one solution cell proliferation assay (MTS; Promega, USA) and the 490 nm absorbance was determined. Data is presented as the number of fold change in 490 nm absorbance compared to untreated control RA-FLS. The data represents the average of 3 independent experiments with at least triplicate wells per treatment. To evaluate the contribution of CD44 to the effect of rhPRG4 or HMW HA, RA-FLS were stimulated with IL-1β or TNF-α as described above. Treatment with rhPRG4 or HMW HA was conducted to a final concentration of 80 μg/mL in the absence or presence of IM7 (Abcam, USA), a CD44 neutralizing antibody that recognizes a conserved epitope across all CD44 isoforms (Samson et al., Exp Eye Res, 2014; 127C:14-19), at a final dilution of 1:200. The total volume in each well was 200 μl. Cell proliferation across the experimental groups was determined as described above and data is presented as the number of fold change in 490 nm absorbance compared to untreated control RA-FLS. The data represents the average of 3 independent experiments with at least triplicate wells per treatment."}},
  "data": [
    {"substance": "rhPRG4: full-length recombinant human PRG4 (lubricin) glycoprotein produced by CHO-M cells (Lubris), Mr≅240 KDa", "values": [
      {"measurement": "IL-6, IL-8, VEGF, TNF-α, IL-1α, IL-1β, MCP-1 and EGF", "setting": "human whole blood; lubricin 0.57 mg/mL before tissue factor (1:10), versus TF alone", "result": "decrease"},
      {"measurement": "TNF-α and VEGF levels", "setting": "human whole blood; lubricin 0.57 mg/mL, tissue factor supplemented samples", "result": "pronounced decrease"},
      {"measurement": "IL-4, IL-6, IL-8, IL-10, VEGF, TNF-α, IL-1β, MCP-1 and EGF", "setting": "whole citrated blood; 60 minutes", "result": "decrease"},
      {"measurement": "EGF, IL10, VEGF, MCP1, IL1b and TNF levels", "setting": "whole citrated blood", "result": "marked decrease"},
      {"measurement": "FGF-2 and IL-1Ra cytokines", "setting": "[1]", "result": "down-regulation"},
      {"measurement": "cytokine response", "setting": "[2]", "result": "did not show any changes"},
      {"measurement": "pain (Von Frey method) versus rats which received placebo", "setting": "[3]", "result": "less pain"},
      {"measurement": "IL-6, IL-8, IL-10, VEGF, TNF-α, IL-1β and EGF", "setting": "whole blood; lubricin 0.57 mg/mL before TNF-α 100 mg/mL, 60 minutes at 37° C., versus TNF-α alone", "result": "decrease"},
      {"measurement": "decrease of the levels of cytokines", "setting": "whole blood; lubricin 0.57 mg/mL, versus TNF-α alone", "result": "10-100%"},
      {"measurement": "TNF-α stimulated IFN-γ and TNF-α", "setting": "whole blood; lubricin 0.57 mg/mL, versus stimulation in the absence of lubricin", "result": "most dramatic decrease"},
      {"measurement": "RA-FLS proliferation with IL-1β stimulation", "setting": "[4]; IL-1β 20 ng/mL, treatment 40 and 80 μg/mL", "result": "significantly suppressed"},
      {"measurement": "RA-FLS proliferation with TNF-α stimulation", "setting": "[4]; TNF-α 5 ng/mL, treatment 20, 40 and 80 μg/mL", "result": "significantly suppressed"}
    ]}
  ]
}
